Test results reported in ChEMBL document CHEMBL4251741, “Amidate Prodrugs of Cyclic 9-(S)-[3-Hydroxy-2-(phosphonomethoxy)propyl]adenine with Potent Anti-Herpesvirus Activity” (ACS Med Chem Lett, 2018).

Columns and labels:
Human alphaherpesvirus 1 [1] = test: Antiviral activity against Herpes simplex virus 1 KOS infected in HEL cells assessed as inhibition of virus-induced cytopathic effect measured after 2 to 3 days post-infection; format: functional, organism-based; conditions: Human alphaherpesvirus 1, KOS
[2] = Cytotoxicity against HEL cells assessed as morphological changes after 3 days by microscopic analysis; format: cell-based; conditions: human
Human alphaherpesvirus 2 = test: Antiviral activity against Herpes simplex virus 2 G infected in HEL cells assessed as inhibition of virus-induced cytopathic effect measured after 2 to 3 days post-infection; format: functional, organism-based; conditions: Human alphaherpesvirus 2, strain G
Human alphaherpesvirus 1 [3] = test: Antiviral activity against ACV-resistant thymidine kinase deficient Herpes simplex virus 1 KOS infected in HEL cells assessed as inhibition of virus-induced cytopathic effect measured after 2 to 3 days post-infection; format: functional, organism-based; conditions: Human alphaherpesvirus 1, KOS
[4] = Cytotoxicity against HEL cells assessed as reduction in cell viability after 3 days by coulter counting method; format: cell-based; conditions: human
Human betaherpesvirus 5 [5] = test: Antiviral activity against Human cytomegalovirus AD169 infected in HEL cells assessed as inhibition of virus-induced cytopathic effect measured after 6 to 7 days post-infection; format: functional, organism-based; conditions: Human betaherpesvirus 5, AD169, HEL
Human alphaherpesvirus 3 [6] = test: Antiviral activity against thymidine kinase deficient Varicella-Zoster virus 07-1 assessed as inhibition of plaque formation measured after 5 days post-infection; format: functional, organism-based; conditions: Human alphaherpesvirus 3, 07-1, 120 h
[7] = Half life in human plasma at 1 uM by HPLC-MS/MS analysis; format: ADME, cell-free
Human betaherpesvirus 5 [8] = test: Antiviral activity against Human cytomegalovirus Davis infected in HEL cells assessed as inhibition of virus-induced cytopathic effect measured after 6 to 7 days post-infection; format: functional, organism-based; conditions: Human betaherpesvirus 5, Davis
Human alphaherpesvirus 3 [9] = test: Antiviral activity against thymidine kinase expressing Varicella-Zoster virus Oka assessed as inhibition of plaque formation measured after 5 days post-infection; format: functional, organism-based; conditions: Human alphaherpesvirus 3, strain Oka vaccine, 120 h
[10] = Half life in human liver microsomes at 0.1 uM in presence of NADPH-generating system by HPLC-MS/MS analysis; format: ADME, microsome
[11] = Selectivity index, ratio of CC50 for HEL cells to EC50 for Human cytomegalovirus AD169 infected in HEL cells; format: toxicity, cell-based; conditions: read-out: Ratio CC50/EC50
[12] = Selectivity index, ratio of CC50 for HEL cells to EC50 for thymidine kinase deficient Varicella-Zoster virus 07-1 infected in HEL cells; format: toxicity, cell-based; conditions: human, read-out: Ratio CC50/EC50
[13] = Selectivity index, ratio of CC50 for HEL cells to EC50 for thymidine kinase expressing Varicella-Zoster virus Oka infected in HEL cells; format: toxicity, cell-based; conditions: human, read-out: Ratio CC50/EC50
[14] = Selectivity index, ratio of CC50 for HEL cells to EC50 for Herpes simplex virus 2 G infected in HEL cells; format: toxicity, cell-based; conditions: human, read-out: Ratio CC50/EC50
[15] = Selectivity index, ratio of CC50 for HEL cells to EC50 for ACV-resistant thymidine kinase deficient Herpes simplex virus 1 KOS infected in HEL cells; format: toxicity, cell-based; conditions: human, read-out: Ratio CC50/EC50
[16] = Selectivity index, ratio of CC50 for HEL cells to EC50 for Human cytomegalovirus Davis infected in HEL cells; format: toxicity, cell-based; conditions: read-out: Ratio CC50/EC50
[17] = Selectivity index, ratio of CC50 for HEL cells to EC50 for Herpes simplex virus 1 KOS infected in HEL cells; format: toxicity, cell-based; conditions: human, read-out: Ratio CC50/EC50

| SMILES | EC50 (Human alphaherpesvirus 1 [1]) [nM] | MCC at 72 h [2] [µM] | EC50 (Human alphaherpesvirus 2) [nM] | EC50 (Human alphaherpesvirus 1 [3]) [nM] | CC50 at 72 h [4] [nM] | EC50 (Human betaherpesvirus 5 [5]) [nM] | EC50 (Human alphaherpesvirus 3 [6]) [nM] | half-life at 1 µM [7] [min] | EC50 (Human betaherpesvirus 5 [8]) [nM] | EC50 (Human alphaherpesvirus 3 [9]) [nM] | half-life at 0.1 µM [10] [min] | selectivity ratio [11] | selectivity ratio [12] | selectivity ratio [13] | selectivity ratio [14] | selectivity ratio [15] | selectivity ratio [16] | selectivity ratio [17] |
| --- | --- | --- | --- | --- | --- | --- | --- | --- | --- | --- | --- | --- | --- | --- | --- | --- | --- | --- |
| Nc1nc2c(ncn2CCC(CO)CO)c(=O)[nH]1 [PENCICLOVIR] | 480 | > 79 | 840 | > 79000 | > 395000 | – | – | – | – | – | – | – | – | – | – | – | – | – |
| Nc1nc2c(ncn2COC(CO)CO)c(=O)[nH]1 [GANCICLOVIR] | – | > 39.2 | 51 | > 29500 | > 319000 | 7410 | – | – | – | – | – | – | – | – | – | – | – | – |
| Nc1ccn(C[C@@H](CO)OCP(=O)(O)O)c(=O)n1 [CIDOFOVIR] | 4180 | > 71.6 | 2730 | 1950 | > 358000 | – | – | – | – | – | – | – | – | – | – | – | – | – |
| CCCCCOC(=O)[C@H](CC(C)C)NP1(=O)CO[C@@H](Cn2cnc3c(N)ncnc32)CO1 (stereo partly drawn) | 1.3 | 4.27 | 1.9 | 1.3 | 1620 | 5.7 | 0.59 | 84 | 3.8 | 0.47 | 16 | – | – | – | – | – | – | – |
| CCCCCOC(=O)[C@@H](NP(=O)(CO[C@H](CO)Cn1cnc2c(N)ncnc21)N[C@H](C(=O)OCCCCC)C(C)C)C(C)C | 2.3 | 8.57 | 2.8 | 0.9 | 600 | 100 | 0.95 | > 120 | 72 | 1.5 | 4 | – | – | – | – | – | – | – |
| O=c1[nH]c(=O)n([C@H]2C[C@H](O)[C@@H](CO)O2)cc1/C=C/Br [BRIVUDINE] | – | > 30 | > 30000 | > 30000 | > 300000 | – | 22100 | – | – | 53 | – | – | – | – | – | – | – | – |
| CCCCCOC(=O)[C@@H](NP1(=O)CO[C@@H](Cn2cnc3c(N)ncnc32)CO1)C(C)C (stereo partly drawn) | 3 | 4.4 | 4.2 | 1.8 | 7760 | 5.9 | 1.5 | – | 4.8 | 0.57 | – | – | – | – | – | – | – | – |
| CCCCCOC(=O)CC[C@H](NP1(=O)CO[C@@H](Cn2cnc3c(N)ncnc32)CO1)C(=O)OCCCCC (stereo partly drawn) | 1.2 | 13.2 | 2.5 | 1.2 | 520 | 14 | 0.95 | – | 7.6 | 0.58 | – | – | – | – | – | – | – | – |
| CCCCCOC(=O)[C@@H](NP1(=O)CO[C@@H](Cn2cnc3c(N)ncnc32)CO1)[C@@H](C)CC (stereo partly drawn) | 2 | 9.96 | 2.7 | 1.9 | 12000 | 7 | 0.54 | – | 6.5 | 0.45 | – | 1800 | 20000 | 20000 | > 4400 | > 4400 | 1800 | > 4400 |
| CCCCCOC(=O)[C@H](CCSC)NP1(=O)CO[C@@H](Cn2cnc3c(N)ncnc32)CO1 (stereo partly drawn) | 8.9 | 4.11 | 11 | 5.7 | 39600 | 32 | 4 | – | 29 | 2.6 | – | – | – | – | – | – | – | – |
| Nc1nc2c(ncn2COCCO)c(=O)[nH]1 [ACYCLOVIR] | – | > 88.8 | – | – | – | – | – | – | – | – | – | – | – | – | – | – | – | – |
| CCCCCOC(=O)[C@H](C)NP1(=O)CO[C@@H](Cn2cnc3c(N)ncnc32)CO1 (stereo partly drawn) | 20 | 23.5 | 17 | 10 | 3400 | 64 | 4.3 | – | 65 | 2 | – | – | – | – | – | – | – | – |
| CCCCCOC(=O)[C@H](Cc1ccccc1)NP1(=O)CO[C@@H](Cn2cnc3c(N)ncnc32)CO1 (stereo partly drawn) | 3.5 | 9.29 | 2.3 | 1.5 | 30600 | 31 | 3.2 | – | 17 | 0.52 | – | – | – | – | > 4400 | > 4400 | – | > 4400 |
| CCCCCOC(=O)CC(NP1(=O)COC(Cn2cnc3c(N)ncnc32)CO1)C(=O)OCCCCC (single isomer, unassigned) | 210 | > 18.5 | 110 | 76 | 11600 | 4390 | 62 | – | 1620 | 33 | – | – | – | – | – | – | – | – |
| CCCCCOC(=O)C[C@H](NP1(=O)CO[C@@H](Cn2cnc3c(N)ncnc32)CO1)C(=O)OCCCCC (stereo partly drawn) | 3.2 | 13.6 | 2 | 7.3 | 2730 | 27 | 1.5 | 22 | 9 | 1.4 | 4 | – | – | – | – | – | – | – |
